pIC50: −log10 of the molar value. Several values for one entry are separate records, joined by “and”; a condition that tells them apart may be missing. Identical values can stand only once.
Test system: MDA-MB-231 multicell spheroids, viability
Test: Anticancer human tumor MDA-MB-231 cell line growth inhibition [PI3K];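 further: spheroids exposed to agents for seven days before reading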;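 on viability, T/C: percent of vehicle control luminescence with DMSO treated spheroids as 100%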
Conditions: for viability, T/C: stronger effect = lower value
In short: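 Agents were dosed from a top concentration near clinical Cmax (otherwise 10 microM) in half-log decrements, alone or combined with PI3K inhibitors. The spheroids contain tumor cells plus endothelial (HUVEC) and MSC stroma; viability is measured.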

[1] = curve of first compound, second compound 0.0316 µM
[2] = curve of first compound, second compound 0.1 µM
[3] = curve of first compound, second compound 0.316 µM
[4] = curve of first compound, second compound 1 µM
[5] = curve of first compound, second compound 0.00316 µM
[6] = curve of first compound, second compound 0.01 µM
[7] = second compound 0.00316 µM, first compound 0.0316 µM
[8] = second compound 0.00316 µM, first compound 0.1 µM
[9] = second compound 0.00316 µM, first compound 0.316 µM
[10] = second compound 0.00316 µM, first compound 1 µM
[11] = second compound 0.01 µM, first compound 0.0316 µM
[12] = second compound 0.01 µM, first compound 0.1 µM
[13] = second compound 0.01 µM, first compound 0.316 µM
[14] = second compound 0.01 µM, first compound 1 µM
[15] = second compound 0.0316 µM, first compound 0.0316 µM
[16] = second compound 0.0316 µM, first compound 0.1 µM
[17] = second compound 0.0316 µM, first compound 0.316 µM
[18] = second compound 0.0316 µM, first compound 1 µM
[19] = second compound 0.1 µM, first compound 0.0316 µM
[20] = second compound 0.1 µM, first compound 0.1 µM
[21] = second compound 0.1 µM, first compound 0.316 µM
[22] = second compound 0.1 µM, first compound 1 µM
[23] = second compound 0.316 µM, first compound 0.0316 µM
[24] = second compound 0.316 µM, first compound 0.1 µM
[25] = second compound 0.316 µM, first compound 0.316 µM
[26] = second compound 0.316 µM, first compound 1 µM
[27] = second compound 1 µM, first compound 0.0316 µM
[28] = second compound 1 µM, first compound 0.1 µM
[29] = second compound 1 µM, first compound 0.316 µM
[30] = second compound 1 µM, first compound 1 µM

Compound `Cn1cnc2c(F)c(Nc3ccc(Br)cc3Cl)c(C(=O)NOCCO)cc21` + Cc1nc(NC(=O)N2CCCC2C(N)=O)sc1-c1ccnc(C(C)(C)C(F)(F)F)c1 has a pIC50 [1] of 6.56, a pIC50 [2] of 7.21 and a pIC50 [3] of over 8.02. The pIC50 [4] was over 8.02, the pIC50 (curve of first compound, second compound 3.16 µM) was over 8.02 and the pIC50 (curve of first compound, second compound 10 µM) was over 8.02. For the same compound, the viability, T/C (second compound 0.0316 µM, first compound 0.00949 µM) was 63.2%, the viability, T/C (second compound 0.0316 µM, first compound 0.03 µM) was 55.5% and the viability, T/C (second compound 0.0316 µM, first compound 0.0949 µM) was 56.7%. It also gave a viability, T/C (second compound 0.0316 µM, first compound 0.3 µM) of 47.1%, a viability, T/C (second compound 0.0316 µM, first compound 0.949 µM) of 45.2% and a viability, T/C (second compound 0.0316 µM, first compound 3 µM) of 29.5%. The viability, T/C (second compound 0.1 µM, first compound 0.00949 µM) was 58.1%, the viability, T/C (second compound 0.1 µM, first compound 0.03 µM) was 51.1% and the viability, T/C (second compound 0.1 µM, first compound 0.0949 µM) was 47.8%. For the same compound, the viability, T/C (second compound 0.1 µM, first compound 0.3 µM) was 41.4%, the viability, T/C (second compound 0.1 µM, first compound 0.949 µM) was 40% and the viability, T/C (second compound 0.1 µM, first compound 3 µM) was 26.1%. The viability, T/C (second compound 0.316 µM, first compound 0.00949 µM) was 50.4%, the viability, T/C (second compound 0.316 µM, first compound 0.03 µM) was 43.2% and the viability, T/C (second compound 0.316 µM, first compound 0.0949 µM) was 48.1%. It also gave a viability, T/C (second compound 0.316 µM, first compound 0.3 µM) of 40.6%, a viability, T/C (second compound 0.316 µM, first compound 0.949 µM) of 34.3% and a viability, T/C (second compound 0.316 µM, first compound 3 µM) of 22.1%. The viability, T/C (second compound 1 µM, first compound 0.00949 µM) was 44.4%, the viability, T/C (second compound 1 µM, first compound 0.03 µM) was 37.8% and the viability, T/C (second compound 1 µM, first compound 0.0949 µM) was 38.7%. For the same compound, the viability, T/C (second compound 1 µM, first compound 0.3 µM) was 37.4%, the viability, T/C (second compound 1 µM, first compound 0.949 µM) was 33% and the viability, T/C (second compound 1 µM, first compound 3 µM) was 12.6%. The viability, T/C (second compound 3.16 µM, first compound 0.00949 µM) was 48.4%, the viability, T/C (second compound 3.16 µM, first compound 0.03 µM) was 37.1% and the viability, T/C (second compound 3.16 µM, first compound 0.0949 µM) was 36.2%. It also gave a viability, T/C (second compound 3.16 µM, first compound 0.3 µM) of 36.1%, a viability, T/C (second compound 3.16 µM, first compound 0.949 µM) of 30.2% and a viability, T/C (second compound 3.16 µM, first compound 3 µM) of 9.65%. It also gave a viability, T/C (second compound 10 µM, first compound 0.00949 µM) of 39.2%, a viability, T/C (second compound 10 µM, first compound 0.03 µM) of 32.7% and a viability, T/C (second compound 10 µM, first compound 0.0949 µM) of 31.6%. For the same compound, the viability, T/C (second compound 10 µM, first compound 0.3 µM) was 24.7%, the viability, T/C (second compound 10 µM, first compound 0.949 µM) was 17.9% and the viability, T/C (second compound 10 µM, first compound 3 µM) was 4.43%.
With `CCN1CCN(Cc2ccc(Nc3ncc(F)c(-c4cc(F)c5nc(C)n(C(C)C)c5c4)n3)nc2)CC1` the viability, T/C (compound 0.00316 µM) was 102% [middle of 4 runs], the viability, T/C (compound 0.01 µM) was 97.1% [middle of 4 runs] and the viability, T/C (compound 0.0316 µM) was 87% [middle of 4 runs]. For the same compound, the viability, T/C (compound 0.1 µM) was 67% and 57.2% and 58.3% (2×), the viability, T/C (compound 0.316 µM) was 56.5% and 44.8% and 49.5% (2×) and the viability, T/C (compound 1 µM) was 49.3% [middle of 4 runs].
With `CCN1CCN(Cc2ccc(Nc3ncc(F)c(-c4cc(F)c5nc(C)n(C(C)C)c5c4)n3)nc2)CC1` + CC(Nc1ccc2c(c1)OCCn1cc(N3C(=O)OCC3C(F)F)nc1-2)C(N)=O the pIC50 [5] was 6.88, the pIC50 [6] was 7.10 and the pIC50 [1] was 7.27. It also gave a pIC50 [2] of 7.61, a pIC50 [3] of 7.67 and a pIC50 [4] of 7.70. For the same compound, the viability, T/C (second compound 0.00316 µM, first compound 0.00316 µM) was 90.8%, the viability, T/C (second compound 0.00316 µM, first compound 0.01 µM) was 103% and the viability, T/C [7] was 76%. For the same compound, the viability, T/C [8] was 54.5%, the viability, T/C [9] was 41.9% and the viability, T/C [10] was 44.9%. For the same compound, the viability, T/C (second compound 0.01 µM, first compound 0.00316 µM) was 92.7%, the viability, T/C (second compound 0.01 µM, first compound 0.01 µM) was 96.3% and the viability, T/C [11] was 65.7%. The viability, T/C [12] was 50.1%, the viability, T/C [13] was 40.6% and the viability, T/C [14] was 47%. The viability, T/C (second compound 0.0316 µM, first compound 0.00316 µM) was 80.2%, the viability, T/C (second compound 0.0316 µM, first compound 0.01 µM) was 84.3% and the viability, T/C [15] was 57.4%. The viability, T/C [16] was 42.6%, the viability, T/C [17] was 35% and the viability, T/C [18] was 45.5%. For the same compound, the viability, T/C (second compound 0.1 µM, first compound 0.00316 µM) was 69.5%, the viability, T/C (second compound 0.1 µM, first compound 0.01 µM) was 70.4% and the viability, T/C [19] was 44.2%. For the same compound, the viability, T/C [20] was 37.1%, the viability, T/C [21] was 33.3% and the viability, T/C [22] was 43.8%. The viability, T/C (second compound 0.316 µM, first compound 0.00316 µM) was 63.4%, the viability, T/C (second compound 0.316 µM, first compound 0.01 µM) was 62.8% and the viability, T/C [23] was 43.4%. For the same compound, the viability, T/C [24] was 36.5%, the viability, T/C [25] was 35.4% and the viability, T/C [26] was 43.5%. It also gave a viability, T/C (second compound 1 µM, first compound 0.00316 µM) of 60.1%, a viability, T/C (second compound 1 µM, first compound 0.01 µM) of 64.8% and a viability, T/C [27] of 41.7%. It also gave a viability, T/C [28] of 34.5%, a viability, T/C [29] of 34.4% and a viability, T/C [30] of 39.1%.
With `CC(C)NCC(C(=O)N1CCN(c2ncnc3c2C(C)CC3O)CC1)c1ccc(Cl)cc1` (stereo unspecified) the viability, T/C (compound 0.0316 µM) was 114% [middle of 4 runs], the viability, T/C (compound 0.1 µM) was 102% [middle of 4 runs] and the viability, T/C (compound 0.316 µM) was 97.3% [middle of 4 runs]. The viability, T/C (compound 1 µM) was 87.9% [middle of 4 runs], the viability, T/C (compound 3.16 µM) was 70.9% [middle of 4 runs] and the viability, T/C (compound 10 µM) was 49.8% [middle of 4 runs]. For the same compound, the pIC50 (curve of compound) was < 5.00 and 5.05 and 5.11.
`Cc1nc(NC(=O)N2CCCC2C(N)=O)sc1-c1ccnc(C(C)(C)C(F)(F)F)c1` (stereo unspecified) was tested, and the viability, T/C (compound 0.0316 µM) was 98.2% [middle of 8 runs], the viability, T/C (compound 0.1 µM) was 88.9% [middle of 8 runs] and the viability, T/C (compound 0.316 µM) was 75.4% [middle of 8 runs]. The viability, T/C (compound 1 µM) was 71.2% [middle of 8 runs], the viability, T/C (compound 3.16 µM) was 64.6% [middle of 8 runs] and the viability, T/C (compound 10 µM) was 63% [middle of 7 runs]. It also gave a pIC50 (compound alone, run of 05/08/2023) of under 5.00.
`C[C@@H](NC(=O)c1ncnc(N)c1Cl)c1ncc(C(=O)Nc2cc(C(F)(F)F)c(Cl)cn2)s1` + COc1c(OCCCN2CCOCC2)ccc2c3n(c(=NC(=O)c4cnc(N)nc4)nc12)CCN3 was tested, and the pIC50 [5] was under 5.00, the pIC50 [6] was under 5.00 and the pIC50 [1] was 5.76. For the same compound, the pIC50 [2] was 6.87, the pIC50 [3] was over 7.50 and the pIC50 [4] was over 7.50. It also gave a viability, T/C [7] of 123%, a viability, T/C [8] of 110% and a viability, T/C [9] of 100%. The viability, T/C [10] was 84.2%, the viability, T/C (second compound 0.00316 µM, first compound 3.16 µM) was 71% and the viability, T/C (second compound 0.00316 µM, first compound 10 µM) was 59.1%. It also gave a viability, T/C [11] of 108%, a viability, T/C [12] of 90.4% and a viability, T/C [13] of 81.6%. For the same compound, the viability, T/C [14] was 65.7%, the viability, T/C (second compound 0.01 µM, first compound 3.16 µM) was 59.8% and the viability, T/C (second compound 0.01 µM, first compound 10 µM) was 52.5%. The viability, T/C [15] was 75.9%, the viability, T/C [16] was 72.9% and the viability, T/C [17] was 61.5%. It also gave a viability, T/C [18] of 54.5%, a viability, T/C (second compound 0.0316 µM, first compound 3.16 µM) of 45.9% and a viability, T/C (second compound 0.0316 µM, first compound 10 µM) of 39.9%. The viability, T/C [19] was 61%, the viability, T/C [20] was 49.6% and the viability, T/C [21] was 45.4%. It also gave a viability, T/C [22] of 39.4%, a viability, T/C (second compound 0.1 µM, first compound 3.16 µM) of 34.2% and a viability, T/C (second compound 0.1 µM, first compound 10 µM) of 28.3%. The viability, T/C [23] was 38.8%, the viability, T/C [24] was 35.3% and the viability, T/C [25] was 29.4%. For the same compound, the viability, T/C [26] was 23.4%, the viability, T/C (second compound 0.316 µM, first compound 3.16 µM) was 20.3% and the viability, T/C (second compound 0.316 µM, first compound 10 µM) was 15.9%. For the same compound, the viability, T/C [27] was 33.4%, the viability, T/C [28] was 25.4% and the viability, T/C [29] was 23.2%. The viability, T/C [30] was 18.2%, the viability, T/C (second compound 1 µM, first compound 3.16 µM) was 15.3% and the viability, T/C (second compound 1 µM, first compound 10 µM) was 10.6%.
